Test results: article PMC4965013, “Open Source Drug Discovery with the Malaria Box Compound Collection for Neglected Diseases and Beyond” (PLoS Pathogens, 2016)

Tests used:
[1] = tested on: P. falciparum 3D7 trophozoites; test: Metabolomic fingerprint profiling LC-MS; assay type: cell-based, Plasmodium falciparum; parameters: UDP-D-glucose / ADP-D-glucose: unit not given here; conditions: for Acetyllysine / N-acetyl-L-ornithine / N-carbamoyl-L-aspartate / NADPH / dAMP / dCMP / dTDP / dTMP / dTTP / dihydroorotate / orotate / DLH / DLS/SDL/SID / PD / PEE / PVNF / 3-phosphoglycerate / ADP-D-glucose / ATP / CDP / D-sedoheptulose-1/7-phosphate / FAD / GMP / NAD+ / NADP+ / Octoluse Bisphosphate / Pyroglutamic acid / UDP-D-glucose / UDP-D-glucuronate / UDP-N-acetyl-glucosamine / UDP / UMP / UTP / a-ketoglutarate / citrate/isocitrate / cytidine / dATP / dGMP/AMP / fumarate / glucose-1/6-phosphate / glycerate / guanine / guanosine / hypoxanthine / indole / inosine / nicotinate / ornithine / phosphoenolpyruvate / pyruvate / ribose-phosphate / sarcosine/alanine / sn-glycerol-3-phosphate / succinate/methylmalonic acid / uridine / xanthosine: S2 Table Metabolomics; for Acetyllysine: metabolite Acetyllysine; for N-acetyl-L-ornithine: metabolite N-acetyl-L-ornithine; for N-carbamoyl-L-aspartate: metabolite N-carbamoyl-L-aspartate; for NADPH: metabolite NADPH; for dAMP: metabolite dAMP; for dCMP: metabolite dCMP; for dTDP: metabolite dTDP; for dTMP: metabolite dTMP; for dTTP: metabolite dTTP; for dihydroorotate: metabolite dihydroorotate; for orotate: metabolite orotate; for DLH: peptide DLH; for DLS/SDL/SID: peptide DLS/SDL/SID; for PD: peptide PD; for PEE: peptide PEE; for PVNF: peptide PVNF; for 3-phosphoglycerate: metabolite 3-phosphoglycerate; for ADP-D-glucose: metabolite ADP-D-glucose; for ATP: metabolite ATP; for CDP: metabolite CDP; for CDP / D-sedoheptulose-1/7-phosphate / GMP / Octoluse Bisphosphate / UDP / UMP / UTP / citrate/isocitrate / dGMP/AMP / fumarate / glucose-1/6-phosphate / glycerate / guanine / guanosine / inosine / pyruvate / sarcosine/alanine / succinate/methylmalonic acid / uridine / xanthosine: change in metabolite level after compound treatment; for D-sedoheptulose-1/7-phosphate: metabolite D-sedoheptulose-1/7-phosphate; for FAD: metabolite FAD; for GMP: metabolite GMP; for NAD+: metabolite NAD+; for NADP+: metabolite NADP+; for Octoluse Bisphosphate: metabolite Octoluse Bisphosphate; for Pyroglutamic acid: metabolite Pyroglutamic acid; for UDP-D-glucose: metabolite UDP-D-glucose; for UDP-D-glucuronate: metabolite UDP-D-glucuronate; for UDP-N-acetyl-glucosamine: metabolite UDP-N-acetyl-glucosamine; for UDP: metabolite UDP; for UMP: metabolite UMP; for UTP: metabolite UTP; for a-ketoglutarate: metabolite a-ketoglutarate; for citrate/isocitrate: metabolite citrate/isocitrate; for cytidine: metabolite cytidine; for dATP: metabolite dATP; for dGMP/AMP: metabolite dGMP/AMP; for fumarate: metabolite fumarate; for glucose-1/6-phosphate: metabolite glucose-1/6-phosphate; for glycerate: metabolite glycerate; for guanine: metabolite guanine; for guanosine: metabolite guanosine; for hypoxanthine: metabolite hypoxanthine; for indole: metabolite indole; for inosine: metabolite inosine; for 2_3-Diphosphoglyceric acid / 4-phosphopantothenate / 6-phospho-D-gluconate / FMN / IMP / Pyrophosphate / Sedoheptoluse bisphosphate / cyclic-AMP / glutathione disulfide / lactate / myo-inositol: metabolite level change after treatment; for nicotinate: metabolite nicotinate; for ornithine: metabolite ornithine; for phosphoenolpyruvate: metabolite phosphoenolpyruvate; for pyruvate: metabolite pyruvate; for ribose-phosphate: metabolite ribose-phosphate; for sarcosine/alanine: metabolite sarcosine/alanine; for sn-glycerol-3-phosphate: metabolite sn-glycerol-3-phosphate; for succinate/methylmalonic acid: metabolite succinate/methylmalonic acid; for uridine: metabolite uridine; for xanthosine: metabolite xanthosine
[2] = tested on: P. falciparum; test: EC50 listed in S2 Table Metabolomics (used to set the concentration tested); assay type: cell-based; conditions: Plasmodium falciparum; EC50 used for Factor_XEC50 in metabolomics; read-out: EC50_nM

## O=C(CSc1nccn2nc(-c3ccccc3)cc12)Nc1cc(C(F)(F)F)ccc1Cl [MMV396678]
[1]
  Acetyllysine: -0.4877
  N-acetyl-L-ornithine: -0.4938
  N-carbamoyl-L-aspartate: 3.602
  NADPH: -0.3509
  dAMP: -2.425
  dCMP: -0.1067
  dTDP: -0.8621
  dTMP: -0.7966
  dTTP: -1.266
  dihydroorotate: 4.597
  orotate: 0.259
  DLH: -0.3174
  DLS/SDL/SID: -0.3424
  PD: -0.07917
  PEE: -0.441
  PVNF: -2.237
  3-phosphoglycerate: -0.1451
  ADP-D-glucose: -0.07756
  ATP: 0.1007
  CDP: -0.7494
  D-sedoheptulose-1/7-phosphate: -0.4438
  FAD: -0.03171
  GMP: 0.3554
  NAD+: 0.01671
  NADP+: -0.09002
  Octoluse Bisphosphate: -0.2508
  Pyroglutamic acid: 0.3744
  UDP-D-glucose: -0.1169
  UDP-D-glucuronate: -0.3093
  UDP-N-acetyl-glucosamine: -0.3205
  UDP: -0.9356
  UMP: -0.7589
  UTP: -1.3566
  a-ketoglutarate: 0.2592
  citrate/isocitrate: 0.4562
  cytidine: 0.4629
  dATP: 0.2611
  dGMP/AMP: -0.1351
  fumarate: 0.07736
  glucose-1/6-phosphate: 0.1714
  glycerate: 0.291
  guanine: 0.4817
  guanosine: 0.7569
  hypoxanthine: 0.5204
  indole: 0.3835
  inosine: 0.4193
  2_3-Diphosphoglyceric acid: -0.1645
  4-phosphopantothenate: -0.3586
  6-phospho-D-gluconate: -0.1209
  FMN: -0.2869
  IMP: 0.1606
  Pyrophosphate: -0.1573
  Sedoheptoluse bisphosphate: -0.2556
  cyclic-AMP: -0.1203
  glutathione disulfide: -0.08653
  lactate: 0.1751
  myo-inositol: -0.2117
  nicotinate: 0.4349
  ornithine: 0.266
  phosphoenolpyruvate: 0.01446
  pyruvate: 0.3754
  ribose-phosphate: -0.04013
  sarcosine/alanine: -0.09301
  sn-glycerol-3-phosphate: -0.3771
  succinate/methylmalonic acid: 0.03069
  uridine: 0.1532
  xanthosine: 0.489

## CCc1c(C)c(=N)c2ccccc2n1C [MMV006278]
[1]
  Acetyllysine: -0.2738
  N-acetyl-L-ornithine: -0.3387
  N-carbamoyl-L-aspartate: 0.04339
  NADPH: -0.1545
  dAMP: -0.2592
  dCMP: 0.05199
  dTDP: -0.2955
  dTMP: -0.278
  dTTP: 0.1315
  dihydroorotate: 0.1029
  orotate: -0.07528
  DLH: 0.1151
  DLS/SDL/SID: -0.1067
  PD: -0.1923
  PEE: 0.09363
  PVNF: -0.2186
  3-phosphoglycerate: -0.1758
  ADP-D-glucose: -0.3132
  ATP: -0.07819
  CDP: -0.1774
  D-sedoheptulose-1/7-phosphate: -0.2519
  FAD: -0.07776
  GMP: -0.3571
  NAD+: -0.07608
  NADP+: -0.2182
  Octoluse Bisphosphate: -0.2383
  Pyroglutamic acid: -0.07564
  UDP-D-glucose: -0.16
  UDP-D-glucuronate: -0.1623
  UDP-N-acetyl-glucosamine: -0.2266
  UDP: -0.2326
  UMP: -0.3171
  UTP: 0.05042
  a-ketoglutarate: 0.05252
  citrate/isocitrate: 0.03563
  cytidine: -0.182
  dATP: 0.1448
  dGMP/AMP: -0.3534
  fumarate: -0.3107
  glucose-1/6-phosphate: -0.535
  glycerate: -0.4983
  guanine: -0.2094
  guanosine: -0.1411
  hypoxanthine: 0.04937
  indole: -0.04764
  inosine: -0.3767
  2_3-Diphosphoglyceric acid: -0.2671
  4-phosphopantothenate: -0.1093
  6-phospho-D-gluconate: -0.1749
  FMN: 0.06658
  IMP: -0.1794
  Pyrophosphate: -0.2417
  Sedoheptoluse bisphosphate: -0.1437
  cyclic-AMP: -0.03098
  glutathione disulfide: -0.1999
  lactate: 0.04854
  myo-inositol: 0.07173
  nicotinate: -0.02818
  ornithine: 0.04171
  phosphoenolpyruvate: -0.1381
  pyruvate: -0.06156
  ribose-phosphate: 0.02401
  sarcosine/alanine: -0.2797
  sn-glycerol-3-phosphate: -0.6565
  succinate/methylmalonic acid: -0.7483
  uridine: -0.02002
  xanthosine: -0.104
[2]
  EC50: 378 nM

## CCOc1ccc(-c2nonc2NC(=O)c2cccc(C)c2)cc1OCC [MMV665805]
[1]
  Acetyllysine: -2.655
  N-acetyl-L-ornithine: -3.165
  N-carbamoyl-L-aspartate: -1.056
  NADPH: 0.0179
  dAMP: -0.2659
  dCMP: -0.0001746
  dTDP: -0.4156
  dTMP: 0.168
  dTTP: -1.808
  dihydroorotate: -0.8461
  orotate: -0.316
  DLH: -3.43
  DLS/SDL/SID: -2.376
  PD: -4.256
  PEE: -1.272
  PVNF: -3.291
  3-phosphoglycerate: -0.4238
  ADP-D-glucose: -0.07023
  ATP: -0.872
  CDP: 0.2433
  D-sedoheptulose-1/7-phosphate: 0.2738
  FAD: -1.216
  GMP: -1.407
  NAD+: -0.2783
  NADP+: 0.09325
  Octoluse Bisphosphate: -2.628
  Pyroglutamic acid: 0.2488
  UDP-D-glucose: -0.08929
  UDP-D-glucuronate: 0.1004
  UDP-N-acetyl-glucosamine: -0.1333
  UDP: 0.1418
  UMP: -2.433
  UTP: -1.276
  a-ketoglutarate: 0.06268
  citrate/isocitrate: -0.7764
  cytidine: -0.5056
  dATP: -1.548
  dGMP/AMP: 0.3312
  fumarate: -2.16
  glucose-1/6-phosphate: -1.496
  glycerate: -1.128
  guanine: -1.378
  guanosine: -1.192
  hypoxanthine: 0.2303
  indole: 0.06669
  inosine: -2.254
  2_3-Diphosphoglyceric acid: -1.518
  4-phosphopantothenate: -1.982
  6-phospho-D-gluconate: -1.236
  FMN: -1.528
  IMP: -1.238
  Pyrophosphate: -1.477
  Sedoheptoluse bisphosphate: -1.741
  cyclic-AMP: -2.892
  glutathione disulfide: -1.641
  lactate: -4.838
  myo-inositol: -5.977
  nicotinate: -0.4798
  ornithine: -0.1601
  phosphoenolpyruvate: 0.09842
  pyruvate: -2.577
  ribose-phosphate: -0.0001746
  sarcosine/alanine: -2.25
  sn-glycerol-3-phosphate: -0.6654
  succinate/methylmalonic acid: -1.698
  uridine: -2.032
  xanthosine: 0.4761
[2]
  EC50: 117 nM
